The first assay deals with T1, mouse GnRH receptor (Mus musculus, UniProt Q01776).
T1 construct: expressed in transfected cells; host or cells: 293 cells
T1 sequence (Q01776 1-327): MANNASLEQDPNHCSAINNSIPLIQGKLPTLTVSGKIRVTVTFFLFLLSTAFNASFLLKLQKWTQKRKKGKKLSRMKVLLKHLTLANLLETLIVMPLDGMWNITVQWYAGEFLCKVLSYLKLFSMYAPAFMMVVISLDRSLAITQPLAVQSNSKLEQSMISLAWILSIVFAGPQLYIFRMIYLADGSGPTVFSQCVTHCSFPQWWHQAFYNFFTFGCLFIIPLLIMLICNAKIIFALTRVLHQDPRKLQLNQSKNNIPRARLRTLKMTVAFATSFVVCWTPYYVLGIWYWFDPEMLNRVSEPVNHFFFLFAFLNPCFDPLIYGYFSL
Kind of assay: Radioligand binding, 125I-GnRH-A, 293 cells expressing mouse GnRH receptors. The note with it: 10 uM; read-out: % Inhib. @ 10 uM mGnRH. Put shortly:
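Bound label captured on 0.1% polyethyleneimine-treated GF/C filters, washed three times with PBS, counted. IC50 derived; identical set-up for every species.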
Take `Cc1cc2c(cc1Cc1ccc(C(=O)NC(C)(C)C(=O)OC(C)(C)C)o1)C(C)(C)CCC2(C)C`: the inhibition at 10 µM came to 75%.
For `Cc1cc2c(cc1Cc1ccc(C(=O)NC3CCCCC3C3CCCCC3)o1)C(C)(C)CCC2(C)C` (centres unmarked), the inhibition at 10 µM is 13%.
As to `COCCN1CCN(C(=O)c2ccc(Cc3cc4c(cc3C)C(C)(C)CCC4(C)C)o2)CC1`, the inhibition at 10 µM is 81%.
Consider `Cc1cc2c(cc1Cc1ccc(C(=O)N3CCc4[nH]c5c(F)cccc5c4C3)o1)C(C)(C)CCC2(C)C`, for which the inhibition at 10 µM is 46%.
Take `COc1ccccc1C1CCN(C(=O)c2ccc(Cc3cc4c(cc3C)C(C)(C)CCC4(C)C)o2)CC1`: the inhibition at 10 µM turned out to be 63%.
On to `COc1ccc(CCN(CC(C)c2ccccc2)C(=O)c2ccc(Cc3cc4c(cc3C)C(C)(C)CCC4(C)C)o2)cc1OC` (centres unmarked), for which the inhibition at 10 µM amounted to 72%.
As to `Cc1cc2c(cc1Cc1ccc(C(=O)N3CCC(NC(=O)OC(C)(C)C)CC3)o1)C(C)(C)CCC2(C)C`, the inhibition at 10 µM turned out to be 67%.
Regarding `Cc1cc2c(cc1Cc1ccc(C(=O)NCCN3CCN(c4nccc(NCC5CCCO5)n4)CC3)o1)C(C)(C)CCC2(C)C` (centres unmarked), the inhibition at 10 µM came out at 96%.
`CCOC(CN(Cc1ccncc1)C(=O)c1ccc(Cc2cc3c(cc2C)C(C)(C)CCC3(C)C)o1)OCC`: the inhibition at 10 µM is 31%.
Consider `CCOC(=O)CC1C(=O)NCCN1C(=O)c1ccc(Cc2cc3c(cc2C)C(C)(C)CCC3(C)C)o1` (centres unmarked), for which the inhibition at 10 µM turned out to be 98%.
On to `CCN(CC)CCN1CCN(C(=O)c2ccc(Cc3cc4c(cc3C)C(C)(C)CCC4(C)C)o2)CC1`, for which the inhibition at 10 µM amounted to 98%.
`Cc1cc2c(cc1Cc1ccc(C(=O)N(C)CC(O)CO)o1)C(C)(C)CCC2(C)C` (centres unmarked): the inhibition at 10 µM turned out to be 69%.
Take `CCOC(CNC(=O)c1ccc(Cc2cc3c(cc2C)C(C)(C)CCC3(C)C)o1)OCC`: the inhibition at 10 µM turned out to be 100%.
Still for that read-out and setting: the value for `CCC(C)CN(CCO)C(=O)c1ccc(Cc2cc3c(cc2C)C(C)(C)CCC3(C)C)o1` (centres unmarked) was 101%.
In the case of `C=CCN(C(=O)c1ccc(Cc2cc3c(cc2C)C(C)(C)CCC3(C)C)o1)C1CCCC1`, the inhibition at 10 µM was 95%.
Consider `CCCCN(CC)CCNC(=O)c1ccc(Cc2cc3c(cc2C)C(C)(C)CCC3(C)C)o1`, for which the inhibition at 10 µM was determined as 101%.
Turning to `CCCN(C(=O)c1ccc(Cc2cc3c(cc2C)C(C)(C)CCC3(C)C)o1)C(C)CC` (centres unmarked), the inhibition at 10 µM was determined as 94%.
As to `Cc1cc2c(cc1Cc1ccc(C(=O)NC(CO)(CO)CO)o1)C(C)(C)CCC2(C)C`, the inhibition at 10 µM came out at 13%.
Same read-out and setting: the value for `Cc1cc2c(cc1Cc1ccc(C(=O)N3CCC3)o1)C(C)(C)CCC2(C)C` was 63%; that for `Cc1cc2c(cc1Cc1ccc(C(=O)N(Cc3ccco3)C3CC(=O)N(Cc4ccccc4)C3=O)o1)C(C)(C)CCC2(C)C` (centres unmarked) was 20%; that for `Cc1cc2c(cc1Cc1ccc(C(=O)N3CCCC3C(O)(c3ccccc3)c3ccccc3)o1)C(C)(C)CCC2(C)C` (centres unmarked) was 31%.
On to `Cc1cc2c(cc1Cc1ccc(C(=O)N3CCN(C(=O)C(c4ccccc4)c4ccccc4)CC3)o1)C(C)(C)CCC2(C)C`, for which the inhibition at 10 µM was 36%.
Take `Cc1cc2c(cc1Cc1ccc(C(=O)N3CCN(C(c4ccccc4)c4ccccc4)CC3)o1)C(C)(C)CCC2(C)C`: the inhibition at 10 µM was determined as 33%.
With `CC1(C)CCC(C)(C)c2cc(Cc3ccc(C(=O)NC4c5ccccc5-c5ccccc54)o3)ccc21`, the inhibition at 10 µM was determined as 53%.

The assay is the same for the next values; noted with them: 1 h, substrate remaining; 10 uM compound; closer to zero = closer to 100% inhibition; read-out: S%R 10 uM mGnRHR.
As to `Cc1cc2c(cc1Cc1ccc(C(=O)NCCC3CCCN3C)o1)C(C)(C)CCC2(C)C` (centres unmarked) [Compound 456], the remaining activity at 10 µM is -12%.
As to `Cc1cc2c(cc1Cc1ccc(C(=O)NCCc3cccnc3)o1)C(C)(C)CCC2(C)C` [Compound 457], the remaining activity at 10 µM was -3%.
On to `Cc1cc2c(cc1Cc1ccc(C(=O)NCCNCCNc3ccccc3)o1)C(C)(C)CCC2(C)C` [Compound 458], for which the remaining activity at 10 µM was determined as 29%.
For the compound `Cc1cc2c(cc1Cc1ccc(C(=O)NC(CCCNC(N)N)C(=O)O)o1)C(C)(C)CCC2(C)C` (centres unmarked) [Compound 459], the remaining activity at 10 µM amounted to 53%.
In the case of `Cc1cc2c(cc1Cc1ccc(C(=O)NCCCN3CCOCC3)o1)C(C)(C)CCC2(C)C` [Compound 460], the remaining activity at 10 µM is -4%.
`Cc1cc2c(cc1Cc1ccc(C(=O)NCCc3ccc(S(N)(=O)=O)cc3)o1)C(C)(C)CCC2(C)C` [Compound 461]: the remaining activity at 10 µM was 53%.
With `Cc1cc2c(cc1Cc1ccc(C(=O)NCCCN(C)c3ccccc3)o1)C(C)(C)CCC2(C)C` [Compound 462], the remaining activity at 10 µM was 0%.
On to `Cc1cc2c(cc1Cc1ccc(C(=O)N3CCC(C(N)=O)CC3)o1)C(C)(C)CCC2(C)C` [Compound 463], for which the remaining activity at 10 µM was -5%.
On the same count and under the same terms, for `Cc1cc2c(cc1Cc1ccc(C(=O)NCC(=O)Nc3ccc([N+](=O)[O-])cc3)o1)C(C)(C)CCC2(C)C` [Compound 464] the value was 7%.
Same read-out and setting: the value for `Cc1cc2c(cc1Cc1ccc(C(=O)NCCNCCN3CCOCC3)o1)C(C)(C)CCC2(C)C` [Compound 465] was 32%; that for `Cc1cc2c(cc1Cc1ccc(C(=O)NC3CCCCC3Nc3nccc(NCC4CCCO4)n3)o1)C(C)(C)CCC2(C)C` (centres unmarked) [Compound 466] was 30%.
Same read-out and setting: the value for `Cc1cc2c(cc1Cc1ccc(C(=O)NCCc3ccc4c(c3)OCO4)o1)C(C)(C)CCC2(C)C` [Compound 467] was -1%.
In the case of `Cc1cc2c(cc1Cc1ccc(C(=O)NCCCn3ccnc3)o1)C(C)(C)CCC2(C)C` [Compound 468], the remaining activity at 10 µM is -10%.
As to `Cc1cc2c(cc1Cc1ccc(C(=O)NCCCc3ccccc3)o1)C(C)(C)CCC2(C)C` [Compound 469], the remaining activity at 10 µM is -9%.
Regarding `Cc1cc2c(cc1Cc1ccc(C(=O)NCCc3c[nH]c4ccccc34)o1)C(C)(C)CCC2(C)C` [Compound 470], the remaining activity at 10 µM was 6%.
Same read-out and setting: the value for `Cc1cc2c(cc1Cc1ccc(C(=O)NCCc3cccs3)o1)C(C)(C)CCC2(C)C` [Compound 471] was -4%; that for `Cc1cc2c(cc1Cc1ccc(C(=O)NCCCNCCCCNCCCN)o1)C(C)(C)CCC2(C)C` [Compound 472] was 42%.
As to `Cc1cc2c(cc1Cc1ccc(C(=O)NC3CCCC(Nc4ccnc(NCC5CCCO5)n4)C3)o1)C(C)(C)CCC2(C)C` (centres unmarked) [Compound 473], the remaining activity at 10 µM is -14%.
As for `COc1ccc(C(=O)CNC(=O)c2ccc(Cc3cc4c(cc3C)C(C)(C)CCC4(C)C)o2)cc1` [Compound 474], the remaining activity at 10 µM is 39%.
Take `Cc1cc2c(cc1Cc1ccc(C(=O)NCCCN3CCN(C)CC3)o1)C(C)(C)CCC2(C)C` [Compound 475]: the remaining activity at 10 µM is -3%.
The same measure, in the same setting: the value for `CC(=O)NCCNC(=O)c1ccc(Cc2cc3c(cc2C)C(C)(C)CCC3(C)C)o1` [Compound 476] was 20%.
For `Cc1cc2c(cc1Cc1ccc(C(=O)Nc3ccc4[nH]c(-c5ccccn5)nc4c3)o1)C(C)(C)CCC2(C)C` [Compound 477], the remaining activity at 10 µM turned out to be 47%.
For the compound `Cc1cc2c(cc1Cc1ccc(C(=O)NCc3ccc(-c4csnn4)cc3)o1)C(C)(C)CCC2(C)C` [Compound 478], the remaining activity at 10 µM came to 3%.

Staying with this assay, now noted: read-out: % Inhib. @ 10 uM mGnRH.
For `Cc1cc2c(cc1Cc1ccc(C(=O)N3CCC(O)(O)CC3)o1)C(C)(C)CCC2(C)C`, the inhibition at 10 µM amounted to 22%.
Consider `Cc1cc2c(cc1Cc1ccc(C(=O)N3CCC4(CC3)OCCCO4)o1)C(C)(C)CCC2(C)C`, for which the inhibition at 10 µM worked out at 99%.
`Cc1cc2c(cc1Cc1ccc(C(=O)N[C@H]3CN4CCC3CC4)o1)C(C)(C)CCC2(C)C`: the inhibition at 10 µM worked out at 12%.

Source of the values: patent US7101878B1 (Agouron Pharmaceuticals, Inc., priority 1998, dated 2006).
